Key:
[1] = test system: HSV-1 17syn+ ocular infection; experiment: HSV-1 ocular infection mouse model, H&E histology of eyes (leukocytic infiltration, peripheral neovascularization); assay type: in vivo, Balb/c mice; settings: day 25 PI
Procedure: Histological score (0-1) was calculated based on leukocytic infiltration and peripheral neovascularization of hematoxylin & eosin (H&E) stained slides of mouse eyes on day 25 PI.
(§1) All experimental procedures were performed in accordance with the ARVO Resolution for the Use of Animals in Ophthalmic and Vision Research and were approved by the Xavier University Animal Care and Use Committee. Female 20 g Balb/c mice were obtained from Charles River Laboratories. Mice were allowed to equilibrate to their surroundings for 2 weeks and then were anesthetized by intramuscular administration of xylazine (6.6 mg/kg of body weight) and ketamine (100 mg/kg of body weight). The corneas were mildly scarified in a 2×2 cross-hatch pattern and each cornea was inoculated with 5×10^5 PFU of strain HSV 17syn+. […] DNA was collected by swabbing the eyes with filter paper, and the eyes were examined with a slit-lamp on PI days 2, 4, 7, 9, 11, 14, 18 and 25. Average neovascularization/eye was scored using the formula A=(C×0.4×L×π)/2 where C=clock hours of neovascularization; 30° arc is 1 (360° circle with a total of 12); L is the length of the longest neovessel, and A is the area of neovascularization. Students scored (by eye) the animals on the days indicated in a masked fashion using the slit-lamp, and images representative of each group were taken. Clinical scores based on epiphora, inflammation and discharge were calculated where 0=no manifestations, +1=slight manifestations, +2=moderate manifestations, and +3=severe manifestations. Mice were sacrificed with CO2 on day 25 post-infection, and eyes were harvested, sectioned, stained with hematoxylin and eosin (H&E) for histological analysis based on peripheral neovascularization and leukocytic infiltration where 0=clear eyes, 0.5=either peripheral neovascularization or leukocytic infiltration, and 1=both peripheral neovascularization and leukocytic infiltration. Ex ovo chick embryo chorioallantoic membrane collagen angiogenesis assays were performed using methods as previously described (Deryugina E I and Quigley J P. Chapter 2. Chick embryo chorioallantoic membrane models to quantify angiogenesis induced by inflammatory and tumor cells or purified effector molecules. Methods Enzymol. 444:21-41. 2008). Briefly, fertilized embryos (Charles River Laboratories, Charleston, S.C.) were incubated at 37.5° C. for 3 days, removed from their shell using a Dremel tool and placed into a covered weighing boat for 7 further days of incubation. […] Four collagen onplants were added per egg on at least 3 separate eggs. After three additional days of incubation, images were taken of each plug using a mini-Vid camera (LW Scientific; Lawrenceville, Ga.) and quantified in a masked fashion based on the percentage of grids that were positive for newly formed blood vessels.
To confirm the results in FIGS. 1A and 1B, sections of one cornea from each mouse was sectioned, stained with H&E and analyzed for leukocytic infiltrate and peripheral neovascularization of the cornea.

[2] = test system: HSV-1 17syn+ ocular infection; experiment: HSV-1 ocular infection mouse model, combined clinical score (epiphora, inflammation, discharge); assay type: in vivo, Balb/c mice; settings: 1% TFT, 0.01% flavopiridol, 0.1% DRB drops
Procedure: The combined clinical score was determined based on epiphora (excess tearing), inflammation and discharge. […], +1=slight manifestations, +2=moderate manifestations, and +3=severe manifestations.
as §1
FIG. 1B is the combined clinical score for the treatment groups based on epiphora (excess tearing), inflammation, and discharge.

## CN1CC[C@H](c2c(O)cc(O)c3c(=O)cc(-c4ccccc4Cl)oc23)[C@H](O)C1 [flavopiridol]
[1]; H&E sections
  mouse eyes exhibiting corneal neovascularization: 0%
  mouse eyes exhibiting leukocytic infiltration: 0%
[1]; H&E stained corneal sections
  histological score (scale 0-1) for leukocytic infiltrate and peripheral neovascularization: 0.125±0.125
[2]; day 11
  combined clinical score (epiphora, inflammation, discharge; 0 to +3): 0.169±0.248
[2]; day 25
  combined clinical score (epiphora, inflammation, discharge; 0 to +3): 0.039±0.177

— patent publication US20180200279A1, “INHIBITION OF HSV-1-ASSOCIATED CORNEAL NEOVASCULARIZATION USING INHIBITORS OF CYCLIN-DEPENDENT KINASE 9” (XAVIER UNIVERSITY OF LOUISIANA, priority 2014, published 2018)
